Experimental data from ChEMBL document CHEMBL1140359, “Solid-phase synthesis and anti-infective activity of a combinatorial library based on the natural product anisomycin” (Bioorg Med Chem Lett, 2005).
pIC50: −log10 of the molar value. ≈ marks a conversion by molar mass, not a printed value.

Tests used:
Candida albicans [1] = test: Percent inhibition against RG-1 mutant strain of Candida albicans at 15.5 uM; assay type: functional
Candida albicans [2] = test: Percent inhibition against efflux-deficient strain of Candida albicans at 15.5 uM; assay type: functional
HEK293 = test: Inhibitory concentration required to produce cytotoxicity against HEK293 cells; assay type: functional, cell-based; details: Homo sapiens
Staphylococcus aureus [3] = test: Percent inhibition against MraY/MurG in Staphylococcus aureus cell walls at 25 uM; assay type: functional
Staphylococcus aureus [4] = test: Percent inhibition against MurPath in Staphylococcus aureus cell walls at the concentration of 25 uM; assay type: functional
Staphylococcus aureus [5] = test: Minimum inhibitory concentration against Staphylococcus aureus; assay type: functional

SMILES | inhibition at 15.5 µM (Candida albicans [1]) [%] | inhibition at 15.5 µM (Candida albicans [2]) [%] | pIC50 (HEK293) | inhibition at 25 µM (Staphylococcus aureus [3]) [%] | inhibition at 25 µM (Staphylococcus aureus [4]) [%] | MIC (Staphylococcus aureus [5]) [µg/mL]
CCCOC(=O)N1C[C@H](O)[C@@H](OC(=O)NCc2ccccc2-c2ccccc2)[C@H]1Cc1ccc(OC)cc1 | 10 | 96 | 5.05 |  |  | 
COc1ccc(C[C@@H]2[C@H](OC(=O)N3CCN(C)CC3)[C@@H](O)CN2C(=O)c2cc(-c3ccc(Cl)cc3)oc2C(F)(F)F)cc1 |  |  | 5.00 | 10 | < 5 | 32 (≈ 51.4 µM)
COc1ccc(C[C@@H]2[C@H](OC(=O)NCc3ccccc3F)[C@@H](O)CN2C(=O)c2cc(C(F)(F)F)cc(C(F)(F)F)c2)cc1 | < 5 | 87 | 5.00 |  |  | 
COc1ccc(C[C@@H]2[C@H](OC(=O)NCc3ccccc3)[C@@H](O)CN2C(=O)c2cc(C(F)(F)F)cc(C(F)(F)F)c2)cc1 | 8 | 87 | 4.80 |  |  | 
COc1ccc(C[C@@H]2[C@H](OC(=O)N[C@@H]3CCN(Cc4ccccc4)C3)[C@@H](O)CN2C(=O)Nc2ccc(-c3ccccc3)cc2)cc1 |  |  | 5.70 | 20 | < 5 | 16 (≈ 25.8 µM)
CCOC(=O)N1C[C@H](O)[C@@H](OC(=O)NCc2ccccc2-c2ccccc2)[C@H]1Cc1ccc(OC)cc1 | 14 | 83 | 4.66 |  |  | 
COc1ccc(C[C@@H]2[C@H](OC(=O)NCc3ccccc3-c3ccccc3)[C@@H](O)CN2C(=O)OCC(C)C)cc1 | < 5 | 82 | 4.96 |  |  | 
COc1ccc(C[C@H]2NC[C@H](O)[C@H]2OC(C)=O)cc1 [ANISOMYCIN] |  | > 99 | 7.70 |  |  | > 32
COc1ccc(C[C@@H]2[C@H](OC(=O)NCc3ccc(F)cc3)[C@@H](O)CN2C(=O)c2cc(C(F)(F)F)cc(C(F)(F)F)c2)cc1 | < 5 | 87 | 5.10 |  |  | 
COc1ccc(C[C@@H]2[C@H](OC(=O)NC3CCN(Cc4ccccc4)CC3)[C@@H](O)CN2C(=O)c2cc(-c3ccc(Cl)cc3)oc2C(F)(F)F)cc1 |  |  | 5.10 | < 5 | < 5 | 16 (≈ 22.5 µM)
